Data published in paper PMC9953885 (Biosensors, 2023).
Structures can show the parent of a compound that is named as a salt.

Target: T1, human pancreatic lipase (hPL) (Homo sapiens, UniProt P16233)
T1 construct: gene PNLIP
T1 sequence (P16233 17-465): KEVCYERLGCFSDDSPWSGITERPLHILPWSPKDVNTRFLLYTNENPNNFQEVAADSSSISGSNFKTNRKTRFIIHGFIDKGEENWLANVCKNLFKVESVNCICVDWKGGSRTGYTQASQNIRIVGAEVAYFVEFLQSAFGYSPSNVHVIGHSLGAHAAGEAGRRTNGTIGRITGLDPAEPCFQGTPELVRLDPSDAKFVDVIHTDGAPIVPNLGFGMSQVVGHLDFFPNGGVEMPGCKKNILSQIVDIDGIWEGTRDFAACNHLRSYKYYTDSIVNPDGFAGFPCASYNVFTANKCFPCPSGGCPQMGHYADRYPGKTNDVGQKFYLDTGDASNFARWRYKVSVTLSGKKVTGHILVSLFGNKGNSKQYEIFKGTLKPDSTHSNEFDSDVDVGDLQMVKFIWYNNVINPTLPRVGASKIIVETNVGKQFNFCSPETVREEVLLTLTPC
Details: 10 µM; inhibitor
Experimental: First, we evaluated the inhibitory effect of 94 natural products derived from herbs and 94 drugs on hPL. In our high-throughput screening system, 1 ug/mL hPL was used, and the final concentration of the 94 natural products derived from herbs and 94 drugs used was 10 μM. Other conditions were the same as in the selectivity experiments. […] RLE was incubated with hPL and various enzymes, such as hCES1A, hCES2A, CA, AchE, BchE, 5-HKE, lysozyme, trypsin, thrombin, α-CT, FAP, PREP, pepsin, α-amylase, plasmin, notum and hSA, in a 100 µL incubation mixture consisting of Tris-HCl (pH = 7.4, 25 mM), NaCl (150 mM), CaCl2 (1 mM) and porcine bile salt (0.1 mg/mL) at a concentration of 1.5 µg/mL. The reaction was initiated by adding RLE to the preincubated enzyme mixture at 37 °C, and metabolite formation was determined by measuring the fluorescence intensity of resorufin at 590 nm. In addition, several amino acids (IIe, His, Trp, Val, Leu, Tyr, Ala, Thr, Pro, Asp, Lys, Met, Cys, Ser, Phe, Gly, Glu and Gln), ions (Ni^2+, Ca^2+, Na^+, K^+, Cu^2+, Zn^2+, Mg^2+, NH4^+, Cu^+, Fe^2+ and CN^-) and GSH were measured. The concentration of these interfering factors was 5 μM. […] In this case, a visual high-throughput assay was established to screen hPL inhibitors, using RLE as a fluorogenic substrate in a 96-well microplate.

| SMILES | % of control remaining [%] |
| --- | --- |
| C=C1CC[C@@H]2[C@](C)(CO)[C@H](O)CC[C@@]2(C)[C@H]1C/C=C1\C=COC1=O [Dehydroandrographolide] | 89.55 |
| COc1ccc(-c2cc(=O)c3c(O)c(OC)c(OC)cc3o2)cc1 [Salvigenin] | 75.70 |
| NCC[C@H](O)C(=O)N[C@@H]1C[C@H](N)[C@@H](O[C@H]2O[C@H](CN)[C@@H](O)[C@H](O)[C@H]2O)[C@H](O)[C@H]1O[C@H]1O[C@H](CO)[C@@H](O)[C@H](N)[C@H]1O [Amikacin] | 73.77 |
| O=C(O)/C=C/c1ccccc1 [trans-Cinnamic acid] | 72.50 |
| COC(=O)C1=C(C)NC(C)=C(C(=O)OCC(C)C)C1c1ccccc1[N+](=O)[O-] (stereo not shown) [Nisoldipine] | 75.08 |
| CC(C(=O)O)c1cccc(Oc2ccccc2)c1 (stereo not shown) [Fenoprofen] | 91.13 |
| CCOC(=O)C1=C[C@@H](OC(CC)CC)[C@H](NC(C)=O)[C@@H](N)C1 [Oseltamivir phosphate] | 101.77 |
| CCOC(=O)C1=C(C)NC(C)=C(C(=O)OC)C1c1cccc([N+](=O)[O-])c1 (stereo not shown) [Nitrendipine] | 92.86 |
| CCCN(CCC)S(=O)(=O)c1ccc(C(=O)O)cc1 [Probenecid] | 93.75 |
| COc1cc2c3cc1Oc1c(OC)c(OC)cc4c1[C@@H](Cc1cccc(c1)Oc1ccc(c(O)c1)C[C@@H]3N(C)CC2)N(C)CC4 [Berbamine Hydrochloride] | 69.86 |
| CC(=O)CC(c1ccccc1)c1c(O)c2ccccc2oc1=O (stereo not shown) [Warfarin sodium] | 84.05 |
| Cc1ccc(-c2cc(C(F)(F)F)nn2-c2ccc(S(N)(=O)=O)cc2)cc1 [Celecoxib] | 90.67 |
| NS(=O)(=O)c1cc2c(cc1Cl)NCNS2(=O)=O [Hydrochlorothiazide] | 99.42 |
| O=C1[C@H](CC[C@H](O)c2ccc(F)cc2)[C@@H](c2ccc(O)cc2)N1c1ccc(F)cc1 [Ezetimibe] | 119.27 |
| Cc1c(O)c(C)c2c(c1O)C(=O)[C@H](Cc1ccc3c(c1)OCO3)CO2 [Methylophiopogonanone A] | 80.44 |
| C[C@H]1CC[C@@]2(OC1)O[C@H]1C[C@H]3[C@@H]4CC[C@@H]5C[C@@H](O[C@@H]6O[C@H](CO)[C@H](O)[C@H](O)[C@H]6O[C@@H]6O[C@H](CO)[C@@H](O)[C@H](O)[C@H]6O)CC[C@]5(C)[C@H]4CC[C@]3(C)[C@H]1[C@@H]2C [Timosaponin A-III] | 95.12 |
| O=C(O)c1cc(-c2ccc(F)cc2F)ccc1O [Diflunisal] | 118.03 |
| O=c1c(O)c(-c2cc(O)c(O)c(O)c2)oc2cc(O)cc(O)c12 [Myricetin] | 56.43 |
| COc1cc2c(=O)c(-c3ccc(O)cc3)coc2cc1O[C@@H]1O[C@H](CO)[C@@H](O)[C@H](O)[C@H]1O [Glycitin] | 99.85 |
| COc1ccc2[nH]c([S+]([O-])Cc3ncc(C)c(OC)c3C)nc2c1 (stereo not shown) [Omeprazole] | 94.84 |
| O=C(Cc1ccccc1F)C1CC1 [Cyclopropyl 2-fluorobenzyl ketone] | 117.10 |
| O=C1c2c(O)cc(O)cc2O[C@H](c2cc(O)c(O)c(O)c2)[C@H]1O [Dihydromyricetin] | 95.62 |
| COc1cc(O)c2c(c1C(=O)/C=C/c1ccc(O)cc1)OC(C)(C)C(O)C2 (stereo not shown) [Xanthohumol L] | 100.78 |
| C[C@@H]1C(=O)O[C@H]2C[C@@]34[C@H]5C[C@@H](C(C)(C)C)[C@]36[C@@H](OC(=O)[C@@H]6O)O[C@@]4(C(=O)O5)[C@]21O [Ginkgolide A] | 125.97 |
| COc1cc(-c2coc3cc4c(c(OC)c3c2=O)OCO4)cc(OC)c1OC [Irisflorentin] | 66.38 |
| COc1cc2/c(=N/c3ccc(Br)cc3F)nc[nH]c2cc1OCC1CCN(C)CC1 [Vandetanib] | 104.95 |
| COc1ccc(-c2oc3c(CC=C(C)C)c(O[C@@H]4O[C@H](CO)[C@@H](O)[C@H](O)[C@H]4O)cc(O)c3c(=O)c2O[C@@H]2O[C@@H](C)[C@H](O)[C@@H](O)[C@H]2O[C@@H]2O[C@@H](C)[C@H](O)[C@@H](O)[C@H]2O)cc1 [Epmedin C] | 81.94 |
| Cc1ncc2n1-c1ccc(Cl)cc1C(c1ccccc1F)=NC2 [Midazolam] | 96.73 |

| SMILES | % of control remaining [%] |
| --- | --- |
| CC1(C)O[C@H]2CC(=O)OC[C@]23[C@H]2CC[C@@]4(C)[C@H](c5ccoc5)OC(=O)[C@H]5O[C@]54[C@]2(C)C(=O)C[C@@H]13 [Limonin] | 85.30 |
| C/C=C(/C)C(=O)O[C@H]1[C@@H](OC(=O)CC(C)C)c2c(ccc3ccc(=O)oc23)OC1(C)C [Praeruptorin E] | 87.81 |
| COc1ccc(-c2coc3cc(O)ccc3c2=O)cc1 [Formononetin] | 104.25 |
| COC(=O)/C=C/c1ccc(O)c(O)c1 [Methyl caffeate] | 72.74 |
| C=C[C@H]1CN2CC[C@H]1C[C@@H]2[C@@H](O)c1ccnc2ccc(OC)cc12 [Quinidine] | 100.77 |
| O=C(O)/C=C/c1ccc(O)cc1 [p-Coumaric acid] | 98.98 |
| CCC(CC)COC(=O)[C@H](C)N[P@](=O)(OC[C@H]1O[C@@](C#N)(c2ccc3c(N)ncnn23)[C@H](O)[C@@H]1O)Oc1ccccc1 [Remdesivir] | 98.67 |
| C#C[C@]1(O)CC[C@H]2[C@@H]3CCC4=CC(=O)CC[C@@H]4[C@H]3C(=C)C[C@@]21CC [Etonogestrel] | 62.97 |
| CC(C)(O/N=C(\C(=O)N[C@@H]1C(=O)N2C(C(=O)[O-])=C(C[n+]3ccccc3)CS[C@H]12)c1csc(N)n1)C(=O)O [CeftazidiMe] | 118.41 |
| COc1c(O)c(O)cc2oc(-c3ccc(O)c(O)c3)c(O)c(=O)c12 [g2, 2-(3,4-Dihydroxyphenyl)-3,6,7-trihydroxy-5-methoxy-4H-1-benzopyran-4-one] | 59.87 |
| CC(C)CCC[C@@H](C)[C@H]1CC[C@H]2[C@@H]3CCC4=CC(=O)CC[C@]4(C)[C@H]3CC[C@]12C [4-Cholesten-3-one] | 77.59 |
| CC1COc2c(N3CCN(C)CC3)c(F)cc3c(=O)c(C(=O)O)cn1c23 (stereo not shown) [Ofloxacin] | 87.95 |
| CC#CCn1c(N2CCC[C@@H](N)C2)nc2c1c(=O)n(Cc1nc(C)c3ccccc3n1)c(=O)n2C [Linagliptin] | 108.93 |
| COc1cc(OC)c(CCC(=O)c2ccc(O)cc2)c(OC)c1 [Loureirin B] | 79.89 |
| O=c1ccc2cc(O)c(O)cc2o1 [Esculetin] | 86.12 |
| COC(=O)[C@H](c1ccccc1Cl)N1CCc2sccc2C1 [Clopidogrel sulfate] | 90.49 |
| O=C(O)CCc1nc(-c2ccccc2)c(-c2ccccc2)o1 [Oxaprozin] | 81.83 |
| COc1cc(O)c2c(=O)cc(-c3ccc(OC)c(-c4c(O)cc(O)c5c(=O)cc(-c6ccc(O)cc6)oc45)c3)oc2c1 [Ginkgetin] | 39.42 |
| CCC1=C[C@@H]2CN3CCc4c([nH]c5ccccc45)[C@@](C(=O)OC)(C2)[C@@H]13 [Catharanthine] | 81.11 |
| CCC1=C(C)CN(C(=O)NCCc2ccc(S(=O)(=O)NC(=O)N[C@H]3CC[C@H](C)CC3)cc2)C1=O [Glimepiride] | 90.05 |
| CC(=O)O[C@]1(C(C)=O)CC[C@H]2[C@@H]3C[C@H](C)C4=CC(=O)CC[C@]4(C)[C@H]3CC[C@@]21C [Medroxyprogesterone Acetate] | 68.77 |
| O=C(/C=C/c1ccccc1)OCc1ccccc1 [Benzyl cinnamate] | 74.62 |
| COc1cc2c(cc1OC)-c1c(C)c3ccc(OC)c(OC)c3c[n+]1CC2 [Dehydrocorydaline] | 123.69 |
| COc1cc([C@@H]2c3cc4c(cc3[C@@H](O[C@@H]3O[C@@H]5CO[C@@H](C)O[C@H]5[C@H](O)[C@H]3O)[C@H]3COC(=O)[C@H]23)OCO4)cc(OC)c1O [Etoposide] | 65.05 |
| C[C@@H]1O[C@@H](Oc2c(-c3cc(O)c(O)c(O)c3)oc3cc(O)cc(O)c3c2=O)[C@H](O)[C@H](O)[C@H]1O [Myricitrin] | 91.12 |
| Cc1nnc2n1-c1ccc(Cl)cc1C(c1ccccc1)=NC2 [Alprazolam] | 68.13 |
| CC(C)=CC[C@@H](O)C1=CC(=O)c2c(O)ccc(O)c2C1=O [Shikonin] | 107.55 |
